Test results as given in patent publication US20100160361A1, “TREATMENT OF MAJOR ADVERSE CARDIAC EVENTS AND ACUTE CORONARY SYNDROME USING SECRETORY PHOSPHOLIPASE A2 (SPLA2) INHIBITOR OR SPLA2 INHIBITOR COMBINATION THERAPIES” (priority 2008, published 2010).
Read-outs that look alike come from different tables or passages of the source.

What was measured:
[1] = tested on: LDL and CRP levels; assay: Reaching composite target LDL and hs-CRP levels in human ACS subjects; assay type: in vivo; details: ITT population
Method: (§1) 625 adult (18 years of age or older) unstable human subjects who had recently experienced an index ACS event (UA, NSTEMI, or STEMI) were randomized to receive placebo or A-002 at 500 mg once daily via oral administration in a double-blinded manner. A-002 was delivered in the form of two 250 mg tablets. In addition, all subjects received atorvastatin at 80 mg once daily via oral administration of a single tablet.
(§2) Subjects were randomized within 96 hours of hospital admission for an index ACS event, or within 96 hours of index ACS event diagnosis if already hospitalized. Prior to randomization, subjects were screened for pertinent medical history, and baseline levels of LDL and hs-CRP were measured. Baseline sPLA2 levels were also measured in a random subset of subjects. Percutaneous revascularization, if required or planned for a particular subject, was performed prior to randomization.
(§3) Subjects were excluded if they were receiving statin therapy at maximum recommended or tolerated dosage (i.e., 40-80 mg QD for atorvastatin, fluvastatin, lovastatin, pravastatin, or simvastatin, or 20-40 mg QD rosuvastatin) at the time of the index ACS event. During the trial, subjects were prevented from using any lipid-lowering therapy other than 80 mg atorvastatin and/or A-002.
(§4) For purposes of this study, MACEs included all-cause mortality, non-fatal MI, documented UA requiring urgent hospitalization, revascularization occurring 60 days or more after the initial index ACS event, and non-fatal stroke. Subjects were evaluated at 2, 4, 8, 12, 16, 20, and 24 weeks after randomization and monthly thereafter until study completion. Each evaluation included measurement of serum LDL levels and recordation of any MACEs or less severe adverse events occurring since the previous evaluation. In addition, certain evaluation periods included measurement of one or more of hs-CRP, sPLA2, IL-6, and/or other biomarker levels, vital signs, weight, and/or waist circumference. […] This final evaluation included at least a complete physical examination, a 12-lead ECG reading, measurement of LDL, hs-CRP, sPLA2, and IL-6 levels, and recordation of any MACEs during the study period.

[2] = tested on: Human ACS Subjects; assay: Major adverse cardiac events (MACEs) in human ACS subjects; assay type: in vivo
Method: as §1, §2, §3, §4

[3] = tested on: subjects that had recently experienced an ACS event; details: 80 mg atorvastatin; subjects that had recently experienced an ACS event (Schwartz 2001); cited from earlier work
[4] = tested on: serum IL-6; assay: Serum IL-6 levels in human ACS subjects; assay type: in vivo
Method: as §1, §2, §3, §4

[5] = tested on: serum sPLA2; assay: Serum sPLA2 levels in human ACS subjects; assay type: in vivo; details: ITT population
Method: as §1, §2, §3, §4

[6] = tested on: serum LDL; details: for % of subjects with [LDL] < 50 mg/dl / % of subjects with [LDL] < 70 mg/dl / % of subjects with [LDL] < 100 mg/dl / % change in mean [LDL] from baseline / Change in mean [LDL] from baseline: ITT population
[7] = tested on: serum hs-CRP; assay: Serum hs-CRP levels in human ACS subjects; assay type: in vivo
Method: as §1, §2, §3, §4

[8] = tested on: stable CVD population; details: cited from earlier work
[9] = Pharmacokinetics of A-002; details: in vivo
[10] = ITT population, cumulative at 16 weeks

CC(C)c1c(C(=O)Nc2ccccc2)c(-c2ccccc2)c(-c2ccc(F)cc2)n1CC[C@@H](O)C[C@@H](O)CC(=O)O [Placebo (atorvastatin only), atorvastatin]
% of subjects with mean [LDL] < 70 mg/dl and [hs-CRP] <1 mg/L ([1]; Baseline): 0.4%
% of subjects with mean [LDL] < 70 mg/dl and [hs-CRP] < 3 mg/L ([1]; Baseline): 1.4%
% of subjects with mean [LDL] < 70 mg/dl and [hs-CRP] <1 mg/L ([1]; Week 2): 5.6%
% of subjects with mean [LDL] < 70 mg/dl and [hs-CRP] < 3 mg/L ([1]; Week 2): 16.4%
% of subjects with mean [LDL] < 70 mg/dl and [hs-CRP] <1 mg/L ([1]; Week 4): 12.8%
% of subjects with mean [LDL] < 70 mg/dl and [hs-CRP] < 3 mg/L ([1]; Week 4): 30.5%
% of subjects with mean [LDL] < 70 mg/dl and [hs-CRP] <1 mg/L ([1]; Week 8): 17.5%
% of subjects with mean [LDL] < 70 mg/dl and [hs-CRP] < 3 mg/L ([1]; Week 8): 36.8%
% of subjects with mean [LDL] < 70 mg/dl and [hs-CRP] <1 mg/L ([1]; Week 16): 15.6%
% of subjects with mean [LDL] < 70 mg/dl and [hs-CRP] < 3 mg/L ([1]; Week 16): 32.9%
% of subjects with mean [LDL] < 70 mg/dl and [hs-CRP] <1 mg/L ([1]; Week 24): 15.9%
% of subjects with mean [LDL] < 70 mg/dl and [hs-CRP] < 3 mg/L ([1]; Week 24): 34.1%
Death (# of events) ([2]; ITT population, 0-30 days): 4
MI (# of events) ([2]; ITT population, 0-30 days): 2
Stroke (# of events) ([2]; ITT population, 0-30 days): 0
Total MACE (# of events) ([2]; ITT population, 0-30 days): 12
UA (# of events) ([2]; ITT population, 0-30 days): 6
Death (# of events), cumulative ([2]; ITT population, 0-60 days): 4
MI (# of events), cumulative ([2]; ITT population, 0-60 days): 3
Stroke (# of events), cumulative ([2]; ITT population, 0-60 days): 0
Total MACE (# of events), cumulative ([2]; ITT population, 0-60 days): 14
UA (# of events), cumulative ([2]; ITT population, 0-60 days): 7
Death (# of events), cumulative ([2]; ITT population, 0-90 days): 5
MI (# of events), cumulative ([2]; ITT population, 0-90 days): 3
Stroke (# of events), cumulative ([2]; ITT population, 0-90 days): 1
Total MACE (# of events), cumulative ([2]; ITT population, 0-90 days): 17
UA (# of events), cumulative ([2]; ITT population, 0-90 days): 8
Death (# of events), cumulative ([2]; ITT population, 0-112 days): 5
MI (# of events), cumulative ([2]; ITT population, 0-112 days): 4
Stroke (# of events), cumulative ([2]; ITT population, 0-112 days): 1
Total MACE (# of events), cumulative ([2]; ITT population, 0-112 days): 19
UA (# of events), cumulative ([2]; ITT population, 0-112 days): 9
Death (# of events) ([2]; ITT population, 30-60 days): 0
MI (# of events) ([2]; ITT population, 30-60 days): 1
Stroke (# of events) ([2]; ITT population, 30-60 days): 0
Total MACE (# of events) ([2]; ITT population, 30-60 days): 2
UA (# of events) ([2]; ITT population, 30-60 days): 1
Death (# of events) ([2]; ITT population, 60-90 days): 1
MI (# of events) ([2]; ITT population, 60-90 days): 0
Stroke (# of events) ([2]; ITT population, 60-90 days): 1
Total MACE (# of events) ([2]; ITT population, 60-90 days): 3
UA (# of events) ([2]; ITT population, 60-90 days): 1
Death (# of events) ([2]; ITT population, 90-112 days): 0
MI (# of events) ([2]; ITT population, 90-112 days): 1
Stroke (# of events) ([2]; ITT population, 90-112 days): 0
Total MACE (# of events) ([2]; ITT population, 90-112 days): 2
UA (# of events) ([2]; ITT population, 90-112 days): 1
Death (% of subjects) [2, 10]: 1.6%
Death (number) [2, 10]: 5
MI (% of subjects) [2, 10]: 1.3%
MI (number) [2, 10]: 4
Revascularization ≧ 60 days (number) [2, 10]: 0
Stroke (% of subjects) [2, 10]: 0.3%
Stroke (number) [2, 10]: 1
Total MACEs (% of subjects) [2, 10]: 6.1%
Total MACEs (number) [2, 10]: 19
UA requiring hospitalization (% of subjects) [2, 10]: 2.9%
UA requiring hospitalization (number) [2, 10]: 9
% of subjects who experienced a MACE ([2]; days 0 to 30): 3.9%
% of subjects who experienced a MACE ([2]; days 0 to 60): 4.5%
% of subjects who experienced a MACE ([2]; days 0 to 90): 5.5%
absolute reduction in death, non-fatal MI, cardiac arrest with resuscitation, or worsening symptomatic myocardial ischemia [3]: 2.6%
relative reduction in death, non-fatal MI, cardiac arrest with resuscitation, or worsening symptomatic myocardial ischemia [3]: 16%
% change in median [IL-6] from baseline ([4]; ITT population, Week 2): −5.2%
% change in median [IL-6] from baseline ([4]; ITT population, Week 4): −33.7%
% change in median [IL-6] from baseline ([4]; ITT population, Week 8): −38.3%
% change in median [IL-6] from baseline ([4]; diabetes subpopulation, Week 2): +3.5%
% change in median [IL-6] from baseline ([4]; diabetes subpopulation, Week 4): −23.9%
% change in median [IL-6] from baseline ([4]; diabetes subpopulation, Week 8): −40.4%
% change in median [sPLA2] from baseline ([5]; Week 2): +5.4%
% change in median [sPLA2] from baseline ([5]; Week 4): −7.0%
% change in median [sPLA2] from baseline ([5]; Week 8): −15.6%
% change in median [sPLA2] from baseline ([5]; Week 16): −12.1%
% of subjects with [LDL] < 50 mg/dl ([6]; Baseline): 1.1%
% of subjects with [LDL] < 70 mg/dl ([6]; Baseline): 5.2%
% of subjects with [LDL] < 100 mg/dl ([6]; Baseline): 24.1%
% change in mean [LDL] from baseline ([6]; Week 2): −41.7%
% of subjects with [LDL] < 50 mg/dl ([6]; Week 2): 21.9%
% of subjects with [LDL] < 70 mg/dl ([6]; Week 2): 54.6%
% of subjects with [LDL] < 100 mg/dl ([6]; Week 2): 89.1%
Change in mean [LDL] from baseline ([6]; Week 2): -52.5 mg/dL
% change in mean [LDL] from baseline ([6]; Week 4): −42.3%
% of subjects with [LDL] < 50 mg/dl ([6]; Week 4): 25.0%
% of subjects with [LDL] < 70 mg/dl ([6]; Week 4): 54.8%
% of subjects with [LDL] < 100 mg/dl ([6]; Week 4): 91.2%
Change in mean [LDL] from baseline ([6]; Week 4): -55.5 mg/dL
% change in mean [LDL] from baseline ([6]; Week 8): −43.8%
% of subjects with [LDL] < 50 mg/dl ([6]; Week 8): 22.7%
% of subjects with [LDL] < 70 mg/dl ([6]; Week 8): 59.9%
% of subjects with [LDL] < 100 mg/dl ([6]; Week 8): 91.4%
Change in mean [LDL] from baseline ([6]; Week 8): -56.6 mg/dL
% change in mean [LDL] from baseline ([6]; Week 16): −36.5%
% of subjects with [LDL] < 50 mg/dl ([6]; Week 16): 16.8%
% of subjects with [LDL] < 70 mg/dl ([6]; Week 16): 48.3%
% of subjects with [LDL] < 100 mg/dl ([6]; Week 16): 82.4%
Change in mean [LDL] from baseline ([6]; Week 16): -48.1 mg/dL
% change in mean [LDL] from baseline ([6]; Week 24): −38.2%
% of subjects with [LDL] < 50 mg/dl ([6]; Week 24): 14.1%
% of subjects with [LDL] < 70 mg/dl ([6]; Week 24): 50.0%
% of subjects with [LDL] < 100 mg/dl ([6]; Week 24): 86.5%
Change in mean [LDL] from baseline ([6]; Week 24): -50.0 mg/dL
percentage of subjects reaching target LDL levels of 50 mg/dl or less ([6]; final study visit): 16.0%
percentage of subjects reaching target LDL levels of 70 mg/dl or less ([6]; final study visit): 42.8%
% change in median [hs-CRP] from baseline ([7]; ITT population, Week 2): −20.0%
% change in median [hs-CRP] from baseline ([7]; ITT population, Week 4): −63.5%
% change in median [hs-CRP] from baseline ([7]; ITT population, Week 8): −71.0%
% change in median [hs-CRP] from baseline ([7]; ITT population, Week 16): −71.8%
% change in log mean [hs-CRP] from baseline ([7]; ITT population, Week 24): −77.0%
% change in median [hs-CRP] from baseline ([7]; diabetes subpopulation, Week 2): −11.0%
% change in median [hs-CRP] from baseline ([7]; diabetes subpopulation, Week 4): −51.1%
% change in median [hs-CRP] from baseline ([7]; diabetes subpopulation, Week 8): −67.6%
% change in median [hs-CRP] from baseline ([7]; diabetes subpopulation, Week 16): −72.4%
% change in median [hs-CRP] from baseline ([7]; diabetes subpopulation, Week 24): −76.1%

CCc1c(C(=O)C(N)=O)c2c(OCC(=O)OC)cccc2n1Cc1ccccc1 [A-002, [[3-(2-Amino-1,2-dioxoethyl)-2-ethyl-1-(phenylmethyl)-1H-indol-4-yl]oxy]acetic acid methyl ester]
effect on cholesterol levels ([8]; once- or twice-daily administration, stable CVD population, diabetic and high baseline LDL-C subpopulations): decreases total cholesterol, LDL-C, total LDL-C particle, and small LDL-C particle levels
effect on inflammatory markers ([8]; stable populations): decreases levels of various inflammatory markers such as hs-CRP and sPLA2
absorption and conversion to active molecule [9]: rapidly absorbed and hydrolyzed to the active A-001 molecule
